How the values were obtained:
[1] = test system: DNFB contact hypersensitivity; test: Dinitrofluorobenzene (DNFB) contact hypersensitivity test, ear thickening after topical application; format: in vivo, C57 BL/6JICO mice; conditions: for % suppression relative to the control batch, LEFT EAR / % suppression relative to the control batch, RIGHT EAR / MEAN VALUES LEFT EAR % INCREASE / MEAN VALUES RIGHT EAR % INCREASE: 5 days
From the text: Study of the Anti-allergic activity of the Peptide compounds, by the Dinitrofluorobenzene (DNFB) contact Hypersensitivity test.
Female C57 BL/6JICO mice 5 weeks old are separated into ten batches of ten animals (five per cage), with free access to water and food, subjected to a photoperiod of twelve hours of light per twenty-four hours.
The animals in batches 1 to 6 receive daily and per topical application on the shaved skin of the back, the products to be studied, dissolved in propylene glycol, in a constant volume of 50 μl and for five consecutive days.
PIII--Batches 1 - 2 - 3--2.5 μg --0.5 μg--0.1 μg--mouse/day
PIV--Batches 4 - 5 - 6 - 2.5μg--0.5 μg--0.1 μg--mouse/day
The animals of the X batch serve as controls (and receive only, 50 μl of propylene glycol per topical application for five days).
(§1) On the fifth day, thirty minutes after the last application, all the mice are sensitized with 25 μl of DNFB (2.4-Dinitro-1-FluoroBenzene (FLUKA CHEMIKA PURUM at 97% batch No. 33820890) at 2% in a 4 to 1 mixture of acetone (SDS ref. 0510) and triolein (FLUKA) applied topically over the dorsal region of shaved skin.
On the sixth day, a new sensitization is carried out by application of DNFB.
On the eleventh day, the thickness of the ears of the mice is measured with the aid of a micrometer (ROCH 0 to 25 mm in 1/100 mm) in order to obtain base values, then the ears are stimulated by topical application of 20 μl of DNFB at 0.8%.
(§2) On the twelfth day, the thickness of the ears is again measured. The mean value of thickening of the ears is established for the mice in the batches which had received the products to be studied, as well as for the mice in the control batch.
The percentage of suppression where appropriate will be expressed by the following calculation: [formula]
Comparative study of the activity of Lipoyl-Peptides and of their peptide structures on DNFB contact hypersensitivity.
The method used is that described above in Example 10.
Contact hypersensitivity induced in mice by Dinitrofluorobenzene--"DNBF"
Batch I: (DL) - Lip - Glu - His - D.homoPhe - Arg - Trp - Gly - NH2
Batch II: H - Glu - His - D.homoPhe - Arg - Trp - Gly - NH2
Batch III: Control=(DL) - Lipoic Acid
Solvent: propylene Glycol previously used as control in Example 10.
Control: dose used"DL-Lipoic-Acid"=10 ng per mouse and per day.
as §1, with “were” for “are”, “05510)” for “0510)”
as §2, with “batch. The percentage of suppression where appropriate will be expressed by the following calculation: [formula]” for “batch.”

[2] = test system: cultured embryonic cells; test: Effects of Peptides PI and PIV on cultured embryonic cells in vitro (melanocytes, neurons, muscular cells, fibroblasts); format: cell-based
Protocol: Effects of Peptides PI and PIV on cultured embryonic cells in vitro . . . "Melanocytes - Neurons - Muscular Cells and Fibroblasts . . . " dose used 1 μg/ml (defined by dose/response trials)
1 single treatment during the innoculation of the cells or several successive treatments (renewal of the medium every 48 hours) duration of culture: 6 to 8 days
1) Counting of the melanocytes
2) Assay of melanin by HPLC and/or by spectrophotometry
Daily observation of the cultures
Ultrastructure by transmission electron microscopy.

In the case of “[(DL) Lip] His - D.homoPhe - Arg - Trp - NH2 [PIV]”, the “% suppression relative to the control batch, LEFT EAR” value ([1]; 0.1 μg/mouse/day topical) is reported as -65.46%, the “% suppression relative to the control batch, RIGHT EAR” value ([1]; 0.1 μg/mouse/day topical) is reported as -65.46% and the “MEAN VALUES LEFT EAR % INCREASE” value ([1]; 0.1 μg/mouse/day topical) is reported as 20.35%. The “MEAN VALUES RIGHT EAR % INCREASE” value ([1]; 0.1 μg/mouse/day topical) was 20.35%, the “% suppression relative to the control batch, LEFT EAR” value ([1]; 0.5 μg/mouse/day topical) was -69.40% and the “% suppression relative to the control batch, RIGHT EAR” value ([1]; 0.5 μg/mouse/day topical) was -69.40%. For the same substance, the “MEAN VALUES LEFT EAR % INCREASE” value ([1]; 0.5 μg/mouse/day topical) was 18.03%, the “MEAN VALUES RIGHT EAR % INCREASE” value ([1]; 0.5 μg/mouse/day topical) was 18.03% and the “% suppression relative to the control batch, LEFT EAR” value ([1]; 2.5 μg/mouse/day topical) was -69.47%. For the same substance, the “% suppression relative to the control batch, RIGHT EAR” value ([1]; 2.5 μg/mouse/day topical) was -69.47%, the “MEAN VALUES LEFT EAR % INCREASE” value ([1]; 2.5 μg/mouse/day topical) was 17.99% and the “MEAN VALUES RIGHT EAR % INCREASE” value ([1]; 2.5 μg/mouse/day topical) was 17.99%. For the same substance, the “suppression of the cutaneous hypersensitivity reaction induced by DiNitroFluoroBenzene” value ([1]; overall, Example 10 (2.5, 0.5, 0.1 μg/mouse/day)) was 68.11%, the “effect on precursor embryonic cells not yet determined in the melanoblastic pathway (in words)” value ([2]; 1 μg/ml) was “no effect” and the “effect on the melanoblasts already induced (in words)” value ([2]; 1 μg/ml) was “stimulating effect”. For the same substance, the “number of melanocytes increases by a factor” value ([2]; 1 μg/ml) was at least 2, the “toxic effect on astroglial cells (in words)” value ([2]; 1 μg/ml) was “No toxic effect” and the “toxic effect on fibroblasts, mesenchyme (in words)” value ([2]; 1 μg/ml) was “no toxic effect”. The “quantity of biosynthesized melanin per cell” value ([2]; 1 μg/ml, after eight days of culture) was 1.4 ng/cell, the “toxic effect on myoblasts (in words)” value ([2]; 1 μg/ml, even at an ultrastructural level) was “no toxic effect” and the “effect on melanogenesis, summary (in words)” value ([2]; qualitative and quantitative) was “stimulate melanogenesis”. For the same substance, the “cytotoxic effect on the various cell categories (in words)” value ([2]; summary) was “no cytotoxic effect” and the “stimulating effect on the other cell types: neurons, astrocytes, muscle cells, fibroblasts (in words)” value ([2]; summary) was “without stimulating effect”.

— patent US5830994A, “Peptide derivatives of alpha-MSH and their application” (Institut Europeen De Biologie Cellulaire, priority 1993, dated 1998)
